In PubChem BioAssay AID1963852 (Molecular Pharmacology Branch, DTP, NCI, 2024):

Test system: 282377-053-R-J1-PDC complex spheroid viability
Assay: Anticancer human tumor 282377-053-R-J1-PDC patient-derived colon adenocarcinoma cell line growth inhibition [POLQ]
Settings: for IC50: curve of first compound; for viability, T/C: stronger effect = lower value
In short: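 Complex spheroid viability model combining PDC tumour cells with endothelial (HUVEC) and MSC stromal cells. Novobiocin, ART-558 or RP6685 were tested singly and in combination with standard and investigational anticancer drugs. Each was titrated in half-log steps from near clinical Cmax, or from 10 microM where Cmax was unknown.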

[1] = second compound 0.0316 µM, first compound 0.00316 µM
[2] = second compound 0.0316 µM, first compound 0.01 µM
[3] = second compound 0.0316 µM, first compound 0.0316 µM
[4] = second compound 0.0316 µM, first compound 0.1 µM
[5] = second compound 0.1 µM, first compound 0.00316 µM
[6] = second compound 0.1 µM, first compound 0.01 µM
[7] = second compound 0.1 µM, first compound 0.0316 µM
[8] = second compound 0.1 µM, first compound 0.1 µM
[9] = second compound 0.316 µM, first compound 0.00316 µM
[10] = second compound 0.316 µM, first compound 0.01 µM
[11] = second compound 0.316 µM, first compound 0.0316 µM
[12] = second compound 0.316 µM, first compound 0.1 µM
[13] = second compound 1 µM, first compound 0.00316 µM
[14] = second compound 1 µM, first compound 0.01 µM
[15] = second compound 1 µM, first compound 0.0316 µM
[16] = second compound 1 µM, first compound 0.1 µM
[17] = second compound 3.16 µM, first compound 0.00316 µM
[18] = second compound 3.16 µM, first compound 0.01 µM
[19] = second compound 3.16 µM, first compound 0.0316 µM
[20] = second compound 3.16 µM, first compound 0.1 µM
[21] = second compound 10 µM, first compound 0.00316 µM
[22] = second compound 10 µM, first compound 0.01 µM
[23] = second compound 10 µM, first compound 0.0316 µM
[24] = second compound 10 µM, first compound 0.1 µM
[25] = second compound 0.0316 µM, first compound 0.316 µM
[26] = second compound 0.0316 µM, first compound 1 µM
[27] = second compound 0.1 µM, first compound 0.316 µM
[28] = second compound 0.1 µM, first compound 1 µM
[29] = second compound 0.316 µM, first compound 0.316 µM
[30] = second compound 0.316 µM, first compound 1 µM
[31] = second compound 1 µM, first compound 0.316 µM
[32] = second compound 1 µM, first compound 1 µM
[33] = second compound 3.16 µM, first compound 0.316 µM
[34] = second compound 3.16 µM, first compound 1 µM
[35] = second compound 10 µM, first compound 0.316 µM
[36] = second compound 10 µM, first compound 1 µM
[37] = second compound 0.0316 µM, first compound 3.16 µM
[38] = second compound 0.0316 µM, first compound 10 µM
[39] = second compound 0.1 µM, first compound 3.16 µM
[40] = second compound 0.1 µM, first compound 10 µM
[41] = second compound 0.316 µM, first compound 3.16 µM
[42] = second compound 0.316 µM, first compound 10 µM
[43] = second compound 1 µM, first compound 3.16 µM
[44] = second compound 1 µM, first compound 10 µM
[45] = second compound 3.16 µM, first compound 3.16 µM
[46] = second compound 3.16 µM, first compound 10 µM
[47] = second compound 10 µM, first compound 3.16 µM
[48] = second compound 10 µM, first compound 10 µM
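Note: spheroids exposed to compounds for seven days.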
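Throughout, for viability, T/C: 100% = DMSO vehicle control viability.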

CC[C@@]1(O)C(=O)OCc2c1cc1n(c2=O)Cc2cc3c(CN(C)C)c(O)ccc3nc2-1 + COC1C(OC(N)=O)C(O)C(Oc2ccc3c(O)c(NC(=O)c4ccc(O)c(CC=C(C)C)c4)c(=O)oc3c2C)OC1(C)C
IC50 (second compound 0.0316 µM): > 100 nM | IC50 (second compound 0.1 µM): > 100 nM | IC50 (second compound 0.316 µM): > 100 nM | IC50 (second compound 1 µM): > 100 nM | IC50 (second compound 3.16 µM): > 100 nM | IC50 (second compound 10 µM): > 100 nM | viability, T/C (second compound 0.0316 µM, first compound 0.000316 µM): 120% | viability, T/C (second compound 0.0316 µM, first compound 0.001 µM): 114% | viability, T/C [1]: 119% | viability, T/C [2]: 99.6% | viability, T/C [3]: 112% | viability, T/C [4]: 72% | viability, T/C (second compound 0.1 µM, first compound 0.000316 µM): 130% | viability, T/C (second compound 0.1 µM, first compound 0.001 µM): 106% | viability, T/C [5]: 116% | viability, T/C [6]: 115% | viability, T/C [7]: 106% | viability, T/C [8]: 64.6% | viability, T/C (second compound 0.316 µM, first compound 0.000316 µM): 106% | viability, T/C (second compound 0.316 µM, first compound 0.001 µM): 105% | viability, T/C [9]: 85.3% | viability, T/C [10]: 100% | viability, T/C [11]: 110% | viability, T/C [12]: 69.3% | viability, T/C (second compound 1 µM, first compound 0.000316 µM): 101% | viability, T/C (second compound 1 µM, first compound 0.001 µM): 112% | viability, T/C [13]: 131% | viability, T/C [14]: 91.2% | viability, T/C [15]: 91.8% | viability, T/C [16]: 70.5% | viability, T/C (second compound 3.16 µM, first compound 0.000316 µM): 102% | viability, T/C (second compound 3.16 µM, first compound 0.001 µM): 105% | viability, T/C [17]: 97.5% | viability, T/C [18]: 123% | viability, T/C [19]: 111% | viability, T/C [20]: 58.5% | viability, T/C (second compound 10 µM, first compound 0.000316 µM): 112% | viability, T/C (second compound 10 µM, first compound 0.001 µM): 110% | viability, T/C [21]: 111% | viability, T/C [22]: 80.7% | viability, T/C [23]: 102% | viability, T/C [24]: 70.3%

CCc1c2c(nc3ccc(O)cc13)-c1cc3c(c(=O)n1C2)COC(=O)[C@]3(O)CC + COC1C(OC(N)=O)C(O)C(Oc2ccc3c(O)c(NC(=O)c4ccc(O)c(CC=C(C)C)c4)c(=O)oc3c2C)OC1(C)C
IC50 (second compound 0.0316 µM): 92.1 nM | IC50 (second compound 0.1 µM): 115 nM | IC50 (second compound 0.316 µM): 114 nM | IC50 (second compound 1 µM): 78.9 nM | IC50 (second compound 3.16 µM): 41.2 nM | IC50 (second compound 10 µM): 52.1 nM | viability, T/C [1]: 111% | viability, T/C [2]: 71.8% | viability, T/C [3]: 59.8% | viability, T/C [4]: 54% | viability, T/C [25]: 30.7% | viability, T/C [26]: 19.4% | viability, T/C [5]: 108% | viability, T/C [6]: 90.1% | viability, T/C [7]: 64.6% | viability, T/C [8]: 51.8% | viability, T/C [27]: 37.6% | viability, T/C [28]: 19.2% | viability, T/C [9]: 124% | viability, T/C [10]: 81.2% | viability, T/C [11]: 60.7% | viability, T/C [12]: 51% | viability, T/C [29]: 37.7% | viability, T/C [30]: 18.6% | viability, T/C [13]: 116% | viability, T/C [14]: 93.8% | viability, T/C [15]: 49.3% | viability, T/C [16]: 59.1% | viability, T/C [31]: 30.9% | viability, T/C [32]: 21.6% | viability, T/C [17]: 115% | viability, T/C [18]: 75.6% | viability, T/C [19]: 46.3% | viability, T/C [20]: 47.8% | viability, T/C [33]: 38.6% | viability, T/C [34]: 25% | viability, T/C [21]: 102% | viability, T/C [22]: 72.6% | viability, T/C [23]: 56% | viability, T/C [24]: 39.2% | viability, T/C [35]: 41.9% | viability, T/C [36]: 16.6%

Nc1ccn(C2OC(CO)C(O)C2(F)F)c(=O)n1 (stereo not drawn) + COC1C(OC(N)=O)C(O)C(Oc2ccc3c(O)c(NC(=O)c4ccc(O)c(CC=C(C)C)c4)c(=O)oc3c2C)OC1(C)C
IC50 (second compound 0.0316 µM): 83.7 nM | IC50 (second compound 0.1 µM): 138 nM | IC50 (second compound 0.316 µM): 123 nM | IC50 (second compound 1 µM): 114 nM | IC50 (second compound 3.16 µM): 90.9 nM | IC50 (second compound 10 µM): 95.6 nM | viability, T/C [3]: 80.7% | viability, T/C [4]: 41.5% | viability, T/C [25]: 28.9% | viability, T/C [26]: 27.2% | viability, T/C [37]: 22.7% | viability, T/C [38]: 11.6% | viability, T/C [7]: 79.7% | viability, T/C [8]: 60.3% | viability, T/C [27]: 23% | viability, T/C [28]: 26% | viability, T/C [39]: 20.7% | viability, T/C [40]: 13.5% | viability, T/C [11]: 107% | viability, T/C [12]: 51.5% | viability, T/C [29]: 32.5% | viability, T/C [30]: 27.8% | viability, T/C [41]: 21.1% | viability, T/C [42]: 12.5% | viability, T/C [15]: 93% | viability, T/C [16]: 48% | viability, T/C [31]: 32% | viability, T/C [32]: 33.3% | viability, T/C [43]: 21.8% | viability, T/C [44]: 10.6% | viability, T/C [19]: 76.5% | viability, T/C [20]: 47.1% | viability, T/C [33]: 27.9% | viability, T/C [34]: 27.8% | viability, T/C [45]: 21.3% | viability, T/C [46]: 11.1% | viability, T/C [23]: 90.2% | viability, T/C [24]: 47.2% | viability, T/C [35]: 28.1% | viability, T/C [36]: 32.7% | viability, T/C [47]: 24% | viability, T/C [48]: 13.8%

O=C(c1cc(Cc2n[nH]c(=O)c3ccccc23)ccc1F)N1CCN(C(=O)C2CC2)CC1 + COC1C(OC(N)=O)C(O)C(Oc2ccc3c(O)c(NC(=O)c4ccc(O)c(CC=C(C)C)c4)c(=O)oc3c2C)OC1(C)C
IC50 (second compound 0.0316 µM): > 10000 nM | IC50 (second compound 0.1 µM): > 10000 nM | IC50 (second compound 0.316 µM): > 10000 nM | IC50 (second compound 1 µM): > 10000 nM | IC50 (second compound 3.16 µM): > 10000 nM | IC50 (second compound 10 µM): > 10000 nM | viability, T/C [3]: 128% | viability, T/C [4]: 97.7% | viability, T/C [25]: 105% | viability, T/C [26]: 106% | viability, T/C [37]: 79.1% | viability, T/C [38]: 103% | viability, T/C [7]: 109% | viability, T/C [8]: 120% | viability, T/C [27]: 90.5% | viability, T/C [28]: 87.8% | viability, T/C [39]: 105% | viability, T/C [40]: 101% | viability, T/C [11]: 107% | viability, T/C [12]: 90.1% | viability, T/C [29]: 99.1% | viability, T/C [30]: 97.7% | viability, T/C [41]: 117% | viability, T/C [42]: 98% | viability, T/C [15]: 116% | viability, T/C [16]: 94.7% | viability, T/C [31]: 103% | viability, T/C [32]: 119% | viability, T/C [43]: 106% | viability, T/C [44]: 96% | viability, T/C [19]: 98.8% | viability, T/C [20]: 108% | viability, T/C [33]: 113% | viability, T/C [34]: 103% | viability, T/C [45]: 107% | viability, T/C [46]: 98.8% | viability, T/C [23]: 94% | viability, T/C [24]: 99.4% | viability, T/C [35]: 102% | viability, T/C [36]: 110% | viability, T/C [47]: 96% | viability, T/C [48]: 80.8%
